The record followed here is PubChem BioAssay (NCI).

Common to all, as to assay: NCI anticancer screen, dose series, 48 h
Assay [1] deals with IGROV1 ovarian.
For assay [2], the system named is 786-0 renal.
Assay [3] concerns NCI-H522 lung.
The subject of assay [4] is MDA-MB-435.
Assay [5] deals with OVCAR-8 ovarian.
The subject of assay [6] is MOLT-4 leukemia.
Assay [7] concerns NCI-H460 lung.
For assay [8], the system named is LOX IMVI melanoma.
Assay [9] relates to HT29 colon.
Assay [10] relates to M14 melanoma.

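Values below derive from 48-hour exposures of cells grown in 96-well plates, with endpoints linearly interpolated between the two concentrations bracketing the appropriate inhibition level. GI50 = concentration required for 50% inhibition of growth. TGI: concentration producing complete growth inhibition.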 Some results are limits rather than exact numbers.

With `O=C(Nc1ccccc1O)c1ccc(Oc2cccc(C(=O)Nc3ccccc3O)c2)cc1`, the GI50 is 5.25 µM in [1]; 2.84 µM in assay [2]; 1.07 µM in [3]; 0.294 µM in [4]; 2.03 µM in assay [5]; 0.767 µM in assay [6]. For the same compound, the GI50 was 1.21 µM in [7], 2.24 µM in [8] and 4.93 µM in assay [9]. Moreover, the TGI in [1] is 27.3 µM; in assay [2] it was 12.2 µM; in [3], 4.73 µM; in assay [4], 10.2 µM; in assay [5], 11.2 µM; in [6], 6.85 µM. In addition, the TGI in [7] came out at 11 µM; in assay [8] it was 12.2 µM; in assay [9], 16.9 µM.
In the case of `NS(=O)(=O)c1cccc(N=Cc2c(O)[nH]c3ccccc23)c1`, the GI50 in assay [1] is > 20.2 µM; in [2], > 25 µM; in [3], 24.4 µM; in assay [4], > 25 µM; in assay [5], > 25 µM; in assay [6], > 25 µM. For the same compound, the GI50 in assay [7], in [8], in assay [9] and in assay [10] was > 25 µM in each case. Further, the TGI in assay [1], in assay [2], in assay [3], in [4], in assay [5] and in assay [6] was > 25 µM each time. The TGI in assay [7], in assay [8], in assay [9] and in assay [10] was > 25 µM each time.
For the compound `COc1ccc(-c2ccc(-c3ccc(-c4ccc(C(=N)N)cc4)s3)s2)cc1OC`, the GI50 in [1] was 0.937 µM; in [2] it was 18.4 µM; in assay [3], 14.1 µM; in assay [4], 5.32 µM; in [5], 3.76 µM; in assay [6], 2.51 µM. In addition, in assay [10], the GI50 is 3.16 µM. The TGI in assay [1] is 3.78 µM; in [2], 49.7 µM; in assay [3], 62.2 µM; in [4], 20.2 µM; in assay [5], > 100 µM; in assay [6], 6.6 µM. In assay [10], this compound showed a TGI of 11.3 µM.
With `O=c1cc(-c2ccccc2)[nH]n1-c1nc2ccccc2[nH]1`, the GI50 in [1] was 6.81 µM; in assay [2], 4.8 µM; in assay [3], 3.65 µM; in assay [4], 5.07 µM; in assay [5], 4.5 µM; in assay [7], 2.51 µM. Further, the GI50 in [8] is 4.61 µM; in assay [10] it was 2.71 µM. For the same compound, the TGI in [1] was > 100 µM; in [2] it was 46.6 µM; in assay [3] it was 17.6 µM; in [4] it was > 100 µM; in assay [5], > 100 µM; in assay [7], > 100 µM. Further, the TGI in assay [8] was 28.1 µM; in assay [10], > 100 µM.
Take `COc1cc(-c2nc3sc4c(c3c(=O)[nH]2)CCCCCC4)cc(OC)c1OC`: the GI50 in [1] is 4.58 µM; in assay [2] it was 1.46 µM; in assay [3], 0.887 µM; in [4], 0.115 µM; in assay [5] it was 1.52 µM; in assay [6], 1.86 µM. For the same compound, the GI50 in [7] was 1.2 µM; in [8], 1.42 µM; in assay [10] it was 0.831 µM. The TGI in assay [1] is > 33.2 µM; in assay [2] it was 23.2 µM; in assay [3], 9.46 µM; in [4], 0.611 µM; in [5], > 33.2 µM; in assay [6], > 33.2 µM. For the same compound, the TGI in [7], in assay [8] and in assay [10] was > 33.2 µM each time.
`CN(C)C(=O)c1cc2cnc(Nc3ccc(-c4csc5c(=O)cc(N6CCOCC6)oc45)cc3)nc2n1C1CCCC1`: the GI50 in assay [2] is 0.162 µM; in assay [3] it was 0.247 µM; in assay [4], 0.196 µM; in assay [5], 0.268 µM; in assay [6] it was 0.23 µM; in [7], 0.209 µM. Also, the figures for the GI50 in assay [8], in [9] and in [10] were 0.112 µM, 0.27 µM and 0.184 µM, respectively. For the same compound, the TGI in assay [2] was 4.25 µM; in [3], 1.3 µM; in assay [4] it was 1.89 µM; in assay [5] it was > 30.5 µM; in assay [6] it was 3.26 µM; in assay [7] it was 1.18 µM. Besides, the TGI is 0.353 µM in assay [8], > 100 µM in [9] and 0.601 µM in assay [10].
In the case of `O=Nc1ccc2ccccc2c1O`, the GI50 in [1] was 2.07 µM; in assay [2] it was 18.4 µM; in assay [3], 1.78 µM; in assay [4], 2.31 µM; in [5] it was 2.67 µM; in assay [7], 15.5 µM. Besides, the GI50 in [8] is 1.68 µM; in assay [9] it was 3.46 µM; in [10], 5.07 µM. Besides, the TGI came to 5.91 µM in assay [1]; 32.8 µM in assay [2]; 4.17 µM in assay [3]; 4.53 µM in [4]; 6.63 µM in [5]; 36.6 µM in assay [7]. The TGI worked out at 5.71 µM in assay [8], 13.4 µM in assay [9] and 16.5 µM in assay [10].
For `Cc1c2c[n+](C(C)C)ccc2c(C)c2c1[nH]c1ccccc12`, the GI50 in [2] was 1.53 µM; in assay [3] it was 2.26 µM; in assay [4], 3.2 µM; in [5] it was 1.46 µM; in assay [6], 3.28 µM; in [7], 2.44 µM. Besides, the figures for the GI50 in assay [8], in [9] and in [10] were 9.17 µM, 3.15 µM and 3.77 µM, respectively. Also, the TGI in assay [2] was > 100 µM; in assay [3] it was 11.4 µM; in assay [4] it was 13.2 µM; in assay [5], 32.1 µM; in assay [6], 17.8 µM; in [7], 10.9 µM. The TGI in [8] was determined as 32.1 µM; in assay [9], 58.8 µM; in assay [10], 17 µM.
